{
  "source": "ChEMBL document CHEMBL1201862",
  "about": "“PubChem BioAssay data set” (2004)",
  "key": {"[1]": {"biological_target": "Cyclin-dependent kinase 5/CDK5 activator 1 (Homo sapiens, UniProt Q00535)", "assay": "human CDK5 activity blockade – biochemical, microfluidic mobility shift, dry powder, selectivity assay for GSK-3 alpha inhibitor project, dose response (AID 588430)"}, "[2]": {"assay": "Luminescence Cell-Based Dose Confirmation to Identify Activators of 5'UTR Stem-Loop Driven Alpha-Synuclein mRNA Translation in H4 Neuroglioblastoma Cells. [Related pubchem assays: 1829 (Project Summary), 1814 (Primary HTS)]", "type": "functional"}, "[3]": {"assay": "Luminescence Cell-Based Dose Response HTS to Identify Activators of Luciferase Translation or Activity in H4 […] Cells. [Related pubchem assays: 1829 (Project Summary), 1814 (Primary HTS)]", "type": "functional"}, "[4]": {"biological_target": "Glycogen synthase kinase-3 beta (Homo sapiens, UniProt P49841)", "sequence (P49841 whole entry)": "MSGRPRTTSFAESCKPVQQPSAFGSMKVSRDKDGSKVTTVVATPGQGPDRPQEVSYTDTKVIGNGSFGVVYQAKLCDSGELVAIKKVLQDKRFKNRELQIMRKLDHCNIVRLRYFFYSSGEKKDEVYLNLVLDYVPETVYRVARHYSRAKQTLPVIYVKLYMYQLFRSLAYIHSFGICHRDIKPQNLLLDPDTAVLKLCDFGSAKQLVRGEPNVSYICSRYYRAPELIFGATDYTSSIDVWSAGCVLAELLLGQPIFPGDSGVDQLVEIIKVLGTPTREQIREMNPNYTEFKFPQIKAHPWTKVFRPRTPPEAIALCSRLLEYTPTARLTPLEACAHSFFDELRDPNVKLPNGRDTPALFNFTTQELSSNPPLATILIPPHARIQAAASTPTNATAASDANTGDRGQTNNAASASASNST", "assay": "Inhibition of Human GSK-3 beta Activity Measured in Biochemical System Using Microfluidics - 2063-05_Inhibitor_Dose_DryPowder_Activity_Set2. [Related pubchem assays (depositor defined):AID2709]"}, "[5]": {"assay": "Luminescence Cell-Based Dose Response to Identify Activators of Luciferase Translation or Activity in H4-C Neuroglioblastoma Cells. [Related pubchem assays: 1829 (Project Summary), 1814 (Primary HTS)]", "type": "functional"}, "[6]": {"test_system": "H4", "assay": "Luminescence Cell-Based Dose Response HTS to Identify Activators of 5'UTR Stem-Loop Driven Prion Protein mRNA Translation in H4 Neuroglioblastoma Cells. [Related pubchem assays: 1829 (Project Summary), 1814 (Primary HTS)]", "type": "functional", "details": "Homo sapiens"}, "[7]": {"assay": "Luminescence Cell-Based Dose Confirmation HTS to Identify Activators of 5'UTR Stem-Loop Driven Alpha-Synuclein mRNA Translation in H4 Neuroglioblastoma Cells. [Related pubchem assays: 1829 (Project Summary), 1814 (Primary HTS)]", "type": "functional"}, "[8]": {"assay": "Luminescence Cell-Based Dose Response to Identify Activators of 5'UTR Stem-Loop Driven Prion Protein mRNA Translation in H4-C Neuroglioblastoma Cells. [Related pubchem assays: 1829 (Project Summary), 1814 (Primary HTS)]", "type": "functional"}, "[9]": {"biological_target": "Glycogen synthase kinase-3 alpha (Homo sapiens, UniProt P49840)", "assay": "Inhibition of Human GSK-3 alpha Activity Measured in Biochemical System Using Microfluidics - 2063-06_Inhibitor_Dose_DryPowder_Activity_Set2. [Related pubchem assays (depositor defined):AID2709]"}, "[10]": {"test_system": "HEK293", "assay": "membrane integrity loss in HEK cells – cell-based, fluorescence, cytotoxicity control for IDE activator project, dose response (AID 588440);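 note: cytotoxicity by LDH release measuring loss of membrane integrity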", "type": "functional", "details": "Homo sapiens"}, "[11]": {"test_system": "HEK293", "assay": "optical interference in Abeta FP readout, dose response, artefact control for IDE activator project, biochemical, fluorescence polarization (AID 588442)", "type": "functional, cell-based", "details": "Homo sapiens"}, "[12]": {"biological_target": "T1, Insulin-degrading enzyme (Homo sapiens, UniProt P14735)", "T1 sequence (P14735 whole entry)": "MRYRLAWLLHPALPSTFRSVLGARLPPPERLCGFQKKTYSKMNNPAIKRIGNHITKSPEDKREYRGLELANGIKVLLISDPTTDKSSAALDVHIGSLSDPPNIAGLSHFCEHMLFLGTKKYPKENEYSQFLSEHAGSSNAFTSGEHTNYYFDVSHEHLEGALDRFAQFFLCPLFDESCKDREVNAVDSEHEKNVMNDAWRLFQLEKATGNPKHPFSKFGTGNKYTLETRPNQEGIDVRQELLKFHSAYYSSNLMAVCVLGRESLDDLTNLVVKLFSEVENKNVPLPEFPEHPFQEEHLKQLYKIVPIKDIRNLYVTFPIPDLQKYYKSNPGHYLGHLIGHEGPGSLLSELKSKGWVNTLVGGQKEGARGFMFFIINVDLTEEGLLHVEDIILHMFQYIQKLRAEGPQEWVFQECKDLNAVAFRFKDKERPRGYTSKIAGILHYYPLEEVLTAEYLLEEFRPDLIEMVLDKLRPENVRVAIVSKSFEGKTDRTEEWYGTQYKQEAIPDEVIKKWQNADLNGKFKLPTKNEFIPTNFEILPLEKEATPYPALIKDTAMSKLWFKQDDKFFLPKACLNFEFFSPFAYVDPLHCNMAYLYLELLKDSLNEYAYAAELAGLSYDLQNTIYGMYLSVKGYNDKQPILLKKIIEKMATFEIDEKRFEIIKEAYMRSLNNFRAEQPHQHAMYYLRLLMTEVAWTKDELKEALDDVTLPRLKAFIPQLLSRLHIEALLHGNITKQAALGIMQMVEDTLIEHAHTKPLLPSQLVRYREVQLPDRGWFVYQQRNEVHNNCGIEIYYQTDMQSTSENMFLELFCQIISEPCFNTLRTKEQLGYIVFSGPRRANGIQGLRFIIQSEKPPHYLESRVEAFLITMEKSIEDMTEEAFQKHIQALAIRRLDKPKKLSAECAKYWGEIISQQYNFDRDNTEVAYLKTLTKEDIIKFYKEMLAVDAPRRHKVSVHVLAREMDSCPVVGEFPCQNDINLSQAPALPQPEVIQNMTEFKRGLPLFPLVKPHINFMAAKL", "assay": "cellular IDE activation of Abeta substrate cleavage – fluorescence polarization, HEK cells, dose response (AID 588439)", "type": "functional, cell-based"}, "[13]": {"biological_target": "T1, Insulin-degrading enzyme", "assay": "recombinant IDE activation, cell-free – biochemical, fluorescence polarization, counter-screen for IDE activator project, dose response (AID 588681)"}, "[14]": {"biological_target": "DNA dC->dU-editing enzyme APOBEC-3A (Homo sapiens, UniProt P31941)", "sequence (P31941 whole entry)": "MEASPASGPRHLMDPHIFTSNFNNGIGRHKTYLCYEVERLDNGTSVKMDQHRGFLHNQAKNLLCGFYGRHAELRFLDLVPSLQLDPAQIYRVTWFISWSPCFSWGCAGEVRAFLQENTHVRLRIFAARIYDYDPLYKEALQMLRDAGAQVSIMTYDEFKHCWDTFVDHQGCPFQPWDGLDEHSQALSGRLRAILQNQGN", "assay": "SAR analysis of small molecule inhibitors of APOBEC3A DNA Deaminase via a fluorescence-based single-stranded DNA deaminase assay.", "type": "functional", "details": "read-out: IC50_Mean"}, "[15]": {"biological_target": "DNA dC->dU-editing enzyme APOBEC-3G (Homo sapiens, UniProt Q9HC16)", "sequence (Q9HC16 whole entry)": "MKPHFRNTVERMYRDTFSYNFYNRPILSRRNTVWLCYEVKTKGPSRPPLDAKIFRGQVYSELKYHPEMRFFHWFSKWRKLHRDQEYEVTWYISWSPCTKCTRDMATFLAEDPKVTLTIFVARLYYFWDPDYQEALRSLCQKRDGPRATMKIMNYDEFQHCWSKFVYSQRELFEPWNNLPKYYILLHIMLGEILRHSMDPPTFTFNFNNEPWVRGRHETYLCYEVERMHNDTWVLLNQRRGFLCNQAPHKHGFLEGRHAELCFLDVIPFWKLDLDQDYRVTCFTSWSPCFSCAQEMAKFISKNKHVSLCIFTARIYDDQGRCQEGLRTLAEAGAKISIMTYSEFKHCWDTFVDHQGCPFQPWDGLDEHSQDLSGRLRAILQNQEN", "assay": "inhibition of APOBEC3G ssDNA deamination – biochemical, fluorescence, single-stranded DNA substrate, SAR follow-up (AID 602136)", "type": "functional", "details": "read-out: IC50_Mean"}, "[16]": {"biological_target": "Cytochrome P450 2C19 (Homo sapiens, UniProt P33261)", "sequence (P33261 whole entry)": "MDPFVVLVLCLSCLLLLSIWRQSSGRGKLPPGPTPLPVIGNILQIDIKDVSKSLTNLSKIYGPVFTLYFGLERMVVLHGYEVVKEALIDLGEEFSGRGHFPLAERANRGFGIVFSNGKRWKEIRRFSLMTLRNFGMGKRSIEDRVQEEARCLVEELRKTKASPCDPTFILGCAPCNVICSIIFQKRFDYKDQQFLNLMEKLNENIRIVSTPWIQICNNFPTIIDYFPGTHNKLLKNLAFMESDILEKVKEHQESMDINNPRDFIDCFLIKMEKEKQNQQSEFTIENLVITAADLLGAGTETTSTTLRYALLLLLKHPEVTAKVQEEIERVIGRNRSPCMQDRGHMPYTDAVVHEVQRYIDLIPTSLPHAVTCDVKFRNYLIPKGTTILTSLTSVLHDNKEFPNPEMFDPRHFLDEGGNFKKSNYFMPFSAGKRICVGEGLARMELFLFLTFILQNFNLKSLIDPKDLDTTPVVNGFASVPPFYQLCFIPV", "assay": "Cytochrome panel assay with activity outcomes. Panel member name: p450-cyp2c19 Compounds with AC50 equal or less than 10 uM are considered active", "type": "functional", "details": "read-out: AC50"}, "[17]": {"biological_target": "Cytochrome P450 2C9 (Homo sapiens, UniProt P11712)"}, "[18]": {"biological_target": "Sphingosine 1-phosphate receptor 4 (Homo sapiens, UniProt O95977)", "sequence (O95977 whole entry)": "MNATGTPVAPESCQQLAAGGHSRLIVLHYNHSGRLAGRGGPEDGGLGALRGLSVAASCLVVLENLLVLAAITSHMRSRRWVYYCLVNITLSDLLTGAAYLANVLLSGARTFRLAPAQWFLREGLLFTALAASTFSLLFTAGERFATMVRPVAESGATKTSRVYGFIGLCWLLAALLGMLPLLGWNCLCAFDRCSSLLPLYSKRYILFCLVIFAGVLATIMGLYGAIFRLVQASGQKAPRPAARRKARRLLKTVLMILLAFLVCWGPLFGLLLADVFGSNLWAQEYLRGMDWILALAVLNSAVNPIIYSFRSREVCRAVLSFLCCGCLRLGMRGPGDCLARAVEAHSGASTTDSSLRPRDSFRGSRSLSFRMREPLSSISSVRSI", "assay": "Late-stage fluorescence-based dose-response cell-based counterscreen assay to identify agonists of the Sphingosine 1-Phosphate Receptor 3 (S1P3): Sphingosine 1-Phosphate Receptor 4 (S1P4) agonist assay.", "type": "functional"}, "[19]": {"biological_target": "Sphingosine 1-phosphate receptor 2 (Homo sapiens, UniProt O95136)", "assay": "Late-stage fluorescence-based dose-response cell-based counterscreen assay to identify agonists of the Sphingosine 1-Phosphate Receptor 3 (S1P3): Sphingosine 1-Phosphate Receptor 2 (S1P2) agonist assay.", "type": "functional"}, "[20]": {"biological_target": "Aurora kinase B (Homo sapiens, UniProt Q96GD4)", "sequence (Q96GD4 whole entry)": "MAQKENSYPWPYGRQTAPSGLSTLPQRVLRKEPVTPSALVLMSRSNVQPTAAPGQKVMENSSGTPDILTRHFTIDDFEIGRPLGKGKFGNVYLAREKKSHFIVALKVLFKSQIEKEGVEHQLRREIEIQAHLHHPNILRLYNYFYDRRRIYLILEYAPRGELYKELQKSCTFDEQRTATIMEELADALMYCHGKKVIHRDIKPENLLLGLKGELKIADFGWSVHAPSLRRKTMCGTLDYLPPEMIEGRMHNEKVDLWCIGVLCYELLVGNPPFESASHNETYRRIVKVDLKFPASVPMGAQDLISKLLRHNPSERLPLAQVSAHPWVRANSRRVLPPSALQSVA", "type": "functional"}, "[21]": {"biological_target": "High affinity nerve growth factor receptor (Homo sapiens, UniProt P04629)", "type": "functional"}, "[22]": {"biological_target": "Hepatocyte growth factor receptor (Homo sapiens, UniProt P08581)", "type": "functional"}, "[23]": {"biological_target": "Tyrosine-protein kinase Fyn (Homo sapiens, UniProt P06241)", "type": "functional"}, "[24]": {"biological_target": "ALK tyrosine kinase receptor (Homo sapiens, UniProt Q9UM73)", "type": "functional"}, "[25]": {"biological_target": "Dual specificity protein kinase CLK4 (Homo sapiens, UniProt Q9HAZ1)", "sequence (Q9HAZ1 whole entry)": "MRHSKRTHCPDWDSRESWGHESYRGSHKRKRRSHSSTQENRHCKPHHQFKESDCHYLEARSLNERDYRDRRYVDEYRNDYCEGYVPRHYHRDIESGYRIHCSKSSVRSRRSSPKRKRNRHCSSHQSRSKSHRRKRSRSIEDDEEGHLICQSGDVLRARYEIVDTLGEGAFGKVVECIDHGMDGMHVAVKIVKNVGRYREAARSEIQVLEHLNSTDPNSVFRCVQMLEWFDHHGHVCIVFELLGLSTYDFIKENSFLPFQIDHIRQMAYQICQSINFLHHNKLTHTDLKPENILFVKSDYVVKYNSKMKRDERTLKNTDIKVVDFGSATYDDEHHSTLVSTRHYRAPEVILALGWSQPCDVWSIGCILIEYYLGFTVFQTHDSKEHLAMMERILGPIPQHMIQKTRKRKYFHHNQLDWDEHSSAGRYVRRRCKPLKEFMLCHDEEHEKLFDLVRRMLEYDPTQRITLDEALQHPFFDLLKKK", "type": "functional"}, "[26]": {"biological_target": "Serine/threonine-protein kinase TAO1 (Homo sapiens, UniProt Q7L7X3)", "sequence (Q7L7X3 whole entry)": "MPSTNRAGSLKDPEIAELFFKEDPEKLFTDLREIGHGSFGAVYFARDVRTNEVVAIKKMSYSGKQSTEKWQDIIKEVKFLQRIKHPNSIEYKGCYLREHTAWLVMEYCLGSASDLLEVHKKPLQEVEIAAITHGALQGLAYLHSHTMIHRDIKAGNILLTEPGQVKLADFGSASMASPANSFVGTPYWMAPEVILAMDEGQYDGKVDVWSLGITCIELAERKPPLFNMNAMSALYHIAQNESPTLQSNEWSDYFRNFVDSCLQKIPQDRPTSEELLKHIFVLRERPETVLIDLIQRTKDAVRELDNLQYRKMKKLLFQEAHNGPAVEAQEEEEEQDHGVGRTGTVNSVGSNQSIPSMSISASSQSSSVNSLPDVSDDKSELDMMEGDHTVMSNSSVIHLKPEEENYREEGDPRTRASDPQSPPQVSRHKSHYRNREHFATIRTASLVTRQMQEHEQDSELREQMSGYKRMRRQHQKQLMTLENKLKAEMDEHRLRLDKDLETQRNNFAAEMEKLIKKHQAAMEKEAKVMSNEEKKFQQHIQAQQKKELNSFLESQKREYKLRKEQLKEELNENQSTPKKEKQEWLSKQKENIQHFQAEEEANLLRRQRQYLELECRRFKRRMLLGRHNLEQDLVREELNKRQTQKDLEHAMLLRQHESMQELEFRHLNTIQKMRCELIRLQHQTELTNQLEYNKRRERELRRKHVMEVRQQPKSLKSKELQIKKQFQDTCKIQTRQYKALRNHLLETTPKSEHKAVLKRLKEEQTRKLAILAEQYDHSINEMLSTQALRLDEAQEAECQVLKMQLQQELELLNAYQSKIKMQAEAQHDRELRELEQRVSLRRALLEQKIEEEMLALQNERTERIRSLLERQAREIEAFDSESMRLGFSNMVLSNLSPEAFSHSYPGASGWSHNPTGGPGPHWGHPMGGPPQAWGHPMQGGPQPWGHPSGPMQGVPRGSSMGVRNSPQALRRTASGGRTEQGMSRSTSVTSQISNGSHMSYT", "type": "functional"}, "[27]": {"biological_target": "BDNF/NT-3 growth factors receptor (Homo sapiens, UniProt Q16620)", "sequence (Q16620 whole entry)": "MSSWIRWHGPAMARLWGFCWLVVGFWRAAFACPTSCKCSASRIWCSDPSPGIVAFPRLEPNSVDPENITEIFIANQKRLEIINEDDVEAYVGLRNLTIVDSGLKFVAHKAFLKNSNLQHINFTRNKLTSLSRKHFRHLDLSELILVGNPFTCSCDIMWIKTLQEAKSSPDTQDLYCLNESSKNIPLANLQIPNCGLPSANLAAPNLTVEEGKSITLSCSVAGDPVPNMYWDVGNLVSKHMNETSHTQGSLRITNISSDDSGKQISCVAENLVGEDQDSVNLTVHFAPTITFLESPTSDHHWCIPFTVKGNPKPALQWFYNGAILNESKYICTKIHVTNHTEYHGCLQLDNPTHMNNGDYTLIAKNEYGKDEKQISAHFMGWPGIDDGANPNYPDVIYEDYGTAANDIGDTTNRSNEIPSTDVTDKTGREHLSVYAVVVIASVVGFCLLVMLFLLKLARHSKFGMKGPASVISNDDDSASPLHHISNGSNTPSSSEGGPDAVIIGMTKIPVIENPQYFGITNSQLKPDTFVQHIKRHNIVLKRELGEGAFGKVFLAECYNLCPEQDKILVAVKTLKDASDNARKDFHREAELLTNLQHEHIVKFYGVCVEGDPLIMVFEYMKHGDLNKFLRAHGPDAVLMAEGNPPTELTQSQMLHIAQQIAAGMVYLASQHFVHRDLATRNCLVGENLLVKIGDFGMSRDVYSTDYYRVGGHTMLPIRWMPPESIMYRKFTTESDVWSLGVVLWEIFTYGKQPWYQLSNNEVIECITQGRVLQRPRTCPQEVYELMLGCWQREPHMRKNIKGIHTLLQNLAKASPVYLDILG", "type": "functional"}, "[28]": {"biological_target": "Calcium/calmodulin-dependent protein kinase type II subunit alpha (Homo sapiens, UniProt Q9UQM7)", "assay": "Navigating the Kinome. Panel member name: CAMK2A", "type": "functional"}, "[29]": {"biological_target": "Tyrosine-protein kinase Lck (Homo sapiens, UniProt P06239)", "type": "functional"}, "[30]": {"biological_target": "Cyclin-dependent kinase 8 (Homo sapiens, UniProt P49336)", "sequence (P49336 whole entry)": "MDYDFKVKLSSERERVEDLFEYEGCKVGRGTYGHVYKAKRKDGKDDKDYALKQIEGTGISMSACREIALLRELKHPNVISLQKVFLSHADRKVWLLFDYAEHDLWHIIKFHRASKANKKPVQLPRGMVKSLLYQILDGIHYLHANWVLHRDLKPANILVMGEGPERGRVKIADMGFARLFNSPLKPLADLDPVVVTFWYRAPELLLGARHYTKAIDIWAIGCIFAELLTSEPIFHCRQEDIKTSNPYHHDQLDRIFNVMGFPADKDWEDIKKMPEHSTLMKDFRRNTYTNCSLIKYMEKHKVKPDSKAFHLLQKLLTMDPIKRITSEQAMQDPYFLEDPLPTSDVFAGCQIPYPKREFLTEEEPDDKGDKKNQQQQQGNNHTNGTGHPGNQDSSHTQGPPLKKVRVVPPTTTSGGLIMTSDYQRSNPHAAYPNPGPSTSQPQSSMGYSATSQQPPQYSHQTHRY", "assay": "Navigating the Kinome. Panel member name: CDK8", "type": "functional"}, "[31]": {"biological_target": "Rho-associated protein kinase 1 (Homo sapiens, UniProt Q13464)", "type": "functional"}, "[32]": {"biological_target": "Phosphorylase b kinase gamma catalytic chain, liver/testis isoform (Homo sapiens, UniProt P15735)", "type": "functional"}, "[33]": {"biological_target": "Serine/threonine-protein kinase pim-3 (Homo sapiens, UniProt Q86V86)", "type": "functional"}},
  "note": "Active and inactive are the calls of the source.",
  "data": [
    {"smiles": "CCNc1nc(N)c(C(=O)c2ccc(Cl)s2)s1", "values": [
      {"measurement": "AC50", "setting": "[1]", "result": "0.516 µM (active)"},
      {"measurement": "EC50", "setting": "[2]", "result": "0.238 µM (active)"},
      {"measurement": "EC50", "setting": "[3]", "result": "0.19 µM (active)"},
      {"measurement": "AC50", "setting": "[4]", "result": "< 0.016 µM (active)"},
      {"measurement": "EC50", "setting": "[5]", "result": "> 12 µM (not active)"},
      {"measurement": "EC50", "setting": "[6]", "result": "> 120 µM (not active)"},
      {"measurement": "EC50", "setting": "[7]", "result": "0.233 µM (active)"},
      {"measurement": "EC50", "setting": "[8]", "result": "1.21 µM (active)"},
      {"measurement": "AC50", "setting": "[9]", "result": "< 0.0218 µM (active)"}
    ]},
    {"smiles": "COc1ccc(C2CC(C(F)(F)F)n3nc(C(=O)O)c(Cl)c3N2)cc1OC", "note": "(stereo not drawn)", "values": [
      {"measurement": "IC50", "setting": "[10]", "result": "> 89.2 µM (inactive)"},
      {"measurement": "EC50", "setting": "[11]", "result": "> 54.7 µM (inactive)"},
      {"measurement": "EC50", "setting": "[12]", "result": "> 54.7 µM (inactive)"},
      {"measurement": "EC50", "setting": "[13]", "result": "50.1 µM (inactive)"}
    ]},
    {"smiles": "CCCCSc1nnc(-c2cc3c(C(F)(F)F)nn(C)c3s2)n1C", "values": [
      {"measurement": "IC50", "setting": "[14]", "result": "> 99 µM (inactive)"},
      {"measurement": "IC50", "setting": "[15]", "result": "51.6 µM (inactive)"},
      {"measurement": "AC50", "setting": "[16]", "result": "20 µM (inconclusive)"},
      {"measurement": "AC50", "setting": "[17]", "result": "inconclusive"}
    ]},
    {"smiles": "CC1CCCCC1N(C(=O)c1cc(C2CC2)on1)C1CCCCCC1", "note": "(stereo not drawn)", "values": [
      {"measurement": "EC50", "setting": "[18]", "result": "> 50 µM (inactive)"},
      {"measurement": "EC50", "setting": "[19]", "result": "> 50 µM (inactive)"}
    ]},
    {"smiles": "Cc1cc(=O)[nH]nc1-c1ccc(NC(=O)Nc2cccc(Cl)c2)cc1", "values": [
      {"measurement": "Ki", "setting": "[20]", "result": "0.631 µM (active)"},
      {"measurement": "Ki", "setting": "[21]", "result": "> 15.8 µM (inactive)"},
      {"measurement": "Ki", "setting": "[22]", "result": "0.631 µM (active)"},
      {"measurement": "Ki", "setting": "[23]", "result": "> 6.31 µM (inactive)"},
      {"measurement": "Ki", "setting": "[24]", "result": "> 6.31 µM (inactive)"},
      {"measurement": "Ki", "setting": "[25]", "result": "2 µM (active)"},
      {"measurement": "Ki", "setting": "[26]", "result": "> 6.31 µM (inactive)"},
      {"measurement": "Ki", "setting": "[27]", "result": "1.58 µM (active)"},
      {"measurement": "Ki", "setting": "[28]", "result": "> 7.94 µM (inactive)"},
      {"measurement": "Ki", "setting": "[29]", "result": "> 6.31 µM (inactive)"},
      {"measurement": "Ki", "setting": "[30]", "result": "3.16 µM (active)"},
      {"measurement": "Ki", "setting": "[31]", "result": "2.51 µM (active)"}
    ]},
    {"smiles": "CCOC(=O)C1=c2sc(=Cc3cccs3)c(=O)n2C(N)=C(C#N)C1c1cccs1", "note": "(stereo not drawn)", "values": [
      {"measurement": "Ki", "setting": "[32]", "result": "5.01 µM (active)"},
      {"measurement": "Ki", "setting": "[33]", "result": "6.31 µM (active)"}
    ]}
  ]
}
